Measured values taken from patent publication US20250144067A1, “PERSONALIZED STARVATION THERAPY FOR CANCER” (Faeth Therapeutics, Inc., priority 2021, published 2025).
Structures can show the parent of a compound that is named as a salt. Where two headings read alike, the source gives them in different places.

Legend:
[1] = system: NCI-H292 lung cancer cells; assay: FDA drug screening, complete media vs cholesterol-free media without statin (TABLE 1); format: cell-based, human
[2] = system: NCI-H292 lung cancer cells; assay: FDA drug screening, complete media vs cholesterol-free media with simvastatin (TABLE 2); format: cell-based, human
[3] = Complete minus Cholesterol-free, >0 enhanced anti-cancer activity, about 0 neutral, <0 antagonist
[4] = NCI-H292 cells, cholesterol-free media without statin
[5] = NCI-H292 cells, FDA library drug in cholesterol-free media with simvastatin 0.04 μM
[6] = NCI-H292 cells, FDA library drug in complete media
[7] = complete media vs cholesterol-free media + simvastatin (0.04 μM), >0 enhanced anti-cancer activity, about 0 neutral, <0 antagonist
[8] = NCI-H292 cells, cholesterol-free media without statin, FDA drug library screen
[9] = NCI-H292 cells, complete media, FDA drug library screen
[10] = NCI-H292 cells, cholesterol-free media with simvastatin 0.04 μM, cell growth value in FDA drug screen
[11] = NCI-H292 cells, complete media, cell growth value in FDA drug screen
[12] = complete media minus cholesterol-free media + simvastatin, >0 enhanced anti-cancer activity, about 0 neutral, <0 antagonist
[13] = complete vs cholesterol-free media, greater than 0 enhanced anti-cancer activity, about 0 neutral, below 0 antagonists
[14] = NCI-H292 cells, drug in cholesterol-free media with simvastatin 0.04 μM
[15] = NCI-H292 cells, drug in complete media
[16] = Complete minus Cholesterol-free, greater than 0 enhanced anti-cancer activity, about 0 neutral, below 0 antagonist
[17] = NCI-H292 cells, FDA drug library screen, cholesterol-free media without statin
[18] = NCI-H292 cells, FDA drug library screen, complete media
[19] = NCI-H292 cells, FDA drug library screen, cholesterol-free media with simvastatin 0.04 μM
[20] = Complete minus Cholesterol-free, greater than 0 enhanced anti-cancer activity, about 0 neutral, below 0 antagonists
[21] = NCI-H292 cells in cholesterol-free media without statin
[22] = NCI-H292 cells in complete media
[23] = NCI-H292 cells, cholesterol-free media with simvastatin 0.04 μM, FDA drug library screen (TABLE 2)
[24] = NCI-H292 cells, complete media, FDA drug library screen (TABLE 2)
[25] = complete media minus cholesterol-free media + simvastatin (0.04 μM), >0 enhanced anti-cancer activity, about 0 neutral, <0 antagonist
[26] = complete vs cholesterol-free media, >0 enhanced anti-cancer activity, about 0 neutral, <0 antagonist

CSCC1CN(/N=C/c2ccc([N+](=O)[O-])o2)C(=O)O1 (centres unmarked) [Nifuratel]
Difference [1, 3]: −0.23 | Cholesterol-free [1, 4]: 1.253 | Complete ([1]; NCI-H292 cells, complete media): 1.019 | Cholesterol-free media + simvastatin (0.04 μM) [2, 5]: 1.397 | Complete Media [2, 6]: 1.12 | Difference [2, 7]: −0.28

O=C(N/N=C/c1ccc([N+](=O)[O-])o1)c1ccc(O)cc1 [Nifuroxazide]
Difference [1, 3]: −0.04 | Cholesterol-free [1, 8]: 0.9553 | Complete [1, 9]: 0.9139 | Cholesterol-free media + simvastatin (0.04 μM) [2, 10]: 1.161 | Complete Media [2, 11]: 1.265 | Difference [2, 12]: 0.10

CC1CS(=O)(=O)CCN1/N=C/c1ccc([N+](=O)[O-])o1 (centres unmarked) [Nifurtimox]
Cholesterol-free [1, 4]: 1.443 | Complete ([1]; NCI-H292 cells, complete media): 1.102 | Difference [1, 13]: −0.34 | Cholesterol-free media + simvastatin (0.04 μM) [2, 14]: 1.357 | Complete Media [2, 15]: 1.111 | Difference [2, 7]: −0.25

CCN(CC)C(=O)c1cccnc1 [Nikethamide]
Difference [1, 16]: −0.18 | Cholesterol-free [1, 17]: 1.071 | Complete [1, 18]: 0.8953 | Cholesterol-free media + simvastatin (0.04 μM) [2, 19]: −0.004932 | Complete Media [2, 18]: 1.43 | Difference [2, 12]: 1.44

Cc1cn(-c2cc(NC(=O)c3ccc(C)c(Nc4nccc(-c5cccnc5)n4)c3)cc(C(F)(F)F)c2)cn1 [Nilotinib]
Cholesterol-free [1, 4]: 1.511 | Complete ([1]; NCI-H292 cells, complete media): 1.113 | Difference [1, 13]: −0.40 | Cholesterol-free media + simvastatin (0.04 μM) [2, 10]: 0.9437 | Complete Media [2, 11]: 0.9791 | Difference [2, 12]: 0.04

CC1(C)NC(=O)N(c2ccc([N+](=O)[O-])c(C(F)(F)F)c2)C1=O [Nilutamide]
Difference [1, 20]: −0.63 | Cholesterol-free [1, 21]: 1.565 | Complete [1, 22]: 0.9342 | Cholesterol-free media + simvastatin (0.04 μM) [2, 5]: 1.474 | Complete Media [2, 6]: 1.003 | Difference [2, 7]: −0.47

COC(=O)C1=C(C#N)NC(C)=C(C(=O)OC(C)C)C1c1cccc([N+](=O)[O-])c1 (centres unmarked) [Nilvadipine]
Difference [1, 3]: −0.27 | Cholesterol-free [1, 4]: 1.059 | Complete ([1]; NCI-H292 cells, complete media): 0.7875 | Cholesterol-free media + simvastatin (0.04 μM) [2, 14]: 1.579 | Complete Media [2, 15]: 1.393 | Difference [2, 7]: −0.19

CS(=O)(=O)Nc1ccc([N+](=O)[O-])cc1Oc1ccccc1 [Nimesulide]
Difference [1, 3]: −0.26 | Cholesterol-free [1, 4]: 1.157 | Complete ([1]; NCI-H292 cells, complete media): 0.8983 | Cholesterol-free media + simvastatin (0.04 μM) [2, 19]: 0.9827 | Difference [2, 12]: 0.17

COCCOC(=O)C1=C(C)NC(C)=C(C(=O)OC(C)C)C1c1cccc([N+](=O)[O-])c1 (centres unmarked) [Nimodipine]
Cholesterol-free [1, 4]: 1.269 | Complete ([1]; NCI-H292 cells, complete media): 0.8907 | Difference [1, 13]: −0.38 | Cholesterol-free media + simvastatin (0.04 μM) [2, 23]: 1.215 | Complete Media [2, 24]: 1.187 | Difference [2, 25]: −0.03

O=[N+]([O-])c1cncn1CCN1CCOCC1 [Nimorazole]
Cholesterol-free [1, 8]: 0.576 | Complete [1, 9]: 0.9886 | Difference [1, 26]: 0.41 | Cholesterol-free media + simvastatin (0.04 μM) [2, 14]: 1.022 | Complete Media [2, 15]: 0.8004 | Difference [2, 7]: −0.22

Cc1ncc(CNC(=O)N(CCCl)N=O)c(N)n1 [Nimustine (hydrochloride)]
Cholesterol-free [1]: 1.02 | Complete [1]: 1.016 | Difference [1]: 0.00 | Cholesterol-free media + simvastatin (0.04 μM) [2]: 1.194 | Complete Media [2]: 1.026 | Difference [2]: −0.17

COC(=O)c1ccc2c(c1)NC(=O)/C2=C(\Nc1ccc(N(C)C(=O)CN2CCN(C)CC2)cc1)c1ccccc1 [Nintedanib esylate]
Difference [1, 3]: 0.02 | Cholesterol-free [1, 8]: 0.5114 | Complete [1, 9]: 0.5279 | Cholesterol-free media + simvastatin (0.04 μM) [2, 23]: 0.7218 | Complete Media [2, 24]: 0.6577 | Difference [2, 25]: −0.06

COC(=O)c1ccc2c(c1)NC(=O)/C2=C(\Nc1ccc(N(C)C(=O)CN2CCN(C)CC2)cc1)c1ccccc1 [Nintedanib]
Difference [1, 16]: −0.17 | Cholesterol-free [1, 17]: 0.7067 | Complete [1, 18]: 0.5362 | Cholesterol-free media + simvastatin (0.04 μM) [2, 23]: 0.7141 | Complete Media [2, 24]: 0.7297 | Difference [2, 25]: 0.02

NC(=O)c1cccc2cn(-c3ccc([C@@H]4CCCNC4)cc3)nc12 [Niraparib (hydrochloride)]
Difference [1, 20]: −0.48 | Cholesterol-free [1, 21]: 1.435 | Complete [1, 22]: 0.9534 | Cholesterol-free media + simvastatin (0.04 μM) [2, 10]: 0.7422 | Complete Media [2, 11]: 0.838 | Difference [2, 12]: 0.10

NC(=O)c1cccc2cn(-c3ccc([C@@H]4CCCNC4)cc3)nc12 [Niraparib]
Difference [1, 3]: −0.30 | Cholesterol-free [1, 4]: 1.29 | Complete ([1]; NCI-H292 cells, complete media): 0.9917 | Cholesterol-free media + simvastatin (0.04 μM) [2, 23]: 1.191 | Complete Media [2, 24]: 1.193 | Difference [2, 25]: 0.00

CC(=O)Oc1ccccc1C(=O)Nc1ncc([N+](=O)[O-])s1 [Nitazoxanide]
Cholesterol-free [1, 8]: 1.033 | Difference [1, 26]: 0.12 | Cholesterol-free media + simvastatin (0.04 μM) [2, 23]: 1.209 | Complete Media [2, 24]: 1.209 | Difference [2, 25]: 0.00

O=C1CCCC(=O)C1C(=O)c1ccc(C(F)(F)F)cc1[N+](=O)[O-] [Nitisinone]
Difference [1, 16]: −0.08 | Cholesterol-free [1, 17]: 0.8746 | Complete [1, 18]: 0.7963 | Cholesterol-free media + simvastatin (0.04 μM) [2, 19]: 0.9427 | Complete Media [2, 18]: 1.188 | Difference [2, 12]: 0.25

CCOC(=O)C1=C(C)NC(C)=C(C(=O)OC)C1c1cccc([N+](=O)[O-])c1 (centres unmarked) [Nitrendipine]
Cholesterol-free [1, 4]: 1.587 | Complete ([1]; NCI-H292 cells, complete media): 1.208 | Difference [1, 13]: −0.38 | Cholesterol-free media + simvastatin (0.04 μM) [2, 23]: 1.103 | Complete Media [2, 24]: 1.042 | Difference [2, 25]: −0.06

O=C1CN(/N=C/c2ccc([N+](=O)[O-])o2)C(=O)N1 [Nitrofurantoin]
Difference [1, 16]: −0.16 | Cholesterol-free [1, 17]: 1.115 | Complete [1, 18]: 0.9573 | Cholesterol-free media + simvastatin (0.04 μM) [2, 19]: 0.848 | Complete Media [2, 18]: 0.7708 | Difference [2, 7]: −0.08

NC(=O)N/N=C/c1ccc([N+](=O)[O-])o1 [Nitrofurazone]
Cholesterol-free [1, 8]: 1.281 | Complete [1, 9]: 1.416 | Difference [1, 26]: 0.13 | Cholesterol-free media + simvastatin (0.04 μM) [2, 5]: 1.854 | Difference [2, 7]: −0.70

O=[N+]([O-])c1ccc(O)c2ncccc12 [Nitroxoline]
Cholesterol-free [1, 8]: 0.8448 | Complete [1, 9]: 1.027 | Difference [1, 26]: 0.18 | Cholesterol-free media + simvastatin (0.04 μM) [2, 19]: 1.871 | Complete Media [2, 18]: 1.743 | Difference [2, 7]: −0.13

CNC(=C[N+](=O)[O-])NCCSCc1csc(CN(C)C)n1 [Nizatidine]
Difference [1, 3]: −0.23 | Cholesterol-free [1, 4]: 1.253 | Complete ([1]; NCI-H292 cells, complete media): 1.026 | Cholesterol-free media + simvastatin (0.04 μM) [2, 19]: 1.118 | Complete Media [2, 18]: 0.9809 | Difference [2, 7]: −0.14

CC(=O)O[C@]1(C(C)=O)CC[C@H]2[C@@H]3C=C(C)C4=CC(=O)CC[C@@H]4[C@H]3CC[C@@]21C [Nomegestrol acetate]
Difference [1, 16]: −0.14 | Cholesterol-free [1, 17]: 0.9161 | Complete [1, 18]: 0.7734 | Cholesterol-free media + simvastatin (0.04 μM) [2, 23]: 0.9875 | Complete Media [2, 24]: 0.9519 | Difference [2, 25]: −0.04

CCCCCCCCC(=O)NCc1ccc(O)c(OC)c1 [Nonivamide]
Complete ([1]; NCI-H292 cells, complete media): 1.201 | Difference ([1]; complete vs cholesterol-free media, […]): −0.42 | Cholesterol-free media + simvastatin (0.04 μM) ([2]; NCI-H292 cells, cholesterol-free media with simvastatin 0.04 μM, […]): 1.059 | Complete Media ([2]; NCI-H292 cells, complete media, […]): 1.139 | Difference ([2]; complete media minus cholesterol-free media + simvastatin, […]): 0.08

NC[C@H](O)c1ccc(O)c(O)c1 [Norepinephrine]
Difference [1, 3]: −0.02 | Cholesterol-free [1, 8]: 0.981 | Complete [1, 9]: 0.9634 | Cholesterol-free media + simvastatin (0.04 μM) [2, 23]: 0.9481 | Complete Media [2, 24]: 0.884 | Difference [2, 25]: −0.06
